This is an account of results in article PMC10778626, “Efficacy of Novel Quaternary Ammonium and Phosphonium Salts Differing in Cation Type and Alkyl Chain Length against Antibiotic-Resistant Staphylococcus aureus” (International Journal of Molecular Sciences, 2023).

The chromatographic logP is lipophilicity estimated from chromatographic retention. A word on the MIC: it is the least concentration at which growth counts as inhibited. As a reminder, the MBC is the smallest concentration meeting the test's criterion for killing.

Series [1] can be described thus: Chromatographic hydrophobicity index (CHI) by UHPLC. In kind it is physicochemical. Particulars: for CHI: LC/UV at pH 2.6, calculated from retention time with the calibration line; for chromatographic logP: back-calculated from CHI at pH 2.6: CHI LogP = 0.047 × CHI + 0.36 × HBC − 1.10. How it is done:
The chromatographic hydrophobicity index (CHI) values were determined using the retention times (tR) of the samples under study and of a mixture of standard compounds on a UHPLC NEXERA SERIES LC-40 with a Luna C18 (2) column of 150 × 4.6 mm, 5 μm (Phenomenex, Torrance, CA, USA). Stock solutions of the test compounds (10 mM) were prepared in dimethyl sulfoxide (DMSO, 99.9%; Carlo Erba) and diluted in acetonitrile/water (1:1) to obtain a final concentration of 500 μM. The mobile phase A was 1.0% (v/v) aqueous acetic acid solution (pH = 2.6), and the mobile phase B was acetonitrile. The following gradient programme was applied: 1–7 min 0–100% B, 7–17 min 100% B, 17–19 min 100–0% B, 1 mL/min flow; rt, injection volume 40 μL.
A calibration line was obtained using a mixture of the following compounds: benzimidazole, theophylline, paracetamol, caffeine, colchicine, carbamazepine, indole, propiophenone, butyrophenone, valerophenone, and heptanophenone (Table S1 and Figure S50, Supplementary Materials). The experimental CHI values of the compounds tested at pH 2.6 were then converted to the logarithm of octanol/water partition coefficient (CHI LogP) values using Equation (1). CHI LogP = 0.047 × CHI + 0.36 × HBC − 1.10 (1) where HBC is the hydrogen bond donor count.

In a further series the test system is S. aureus CECT 976. Put plainly: MIC/MBC by broth microdilution, S. aureus CECT 976. In kind it is cell-based. Conditions: Staphylococcus aureus, CECT976; for MIC: 24 h, 37 °C, read-out: MIC. Here is the method: The minimum inhibitory concentration (MIC) and minimum bactericidal concentration (MBC) values of all QHSs were determined by the broth microdilution method, according to the approved M7-A7 (aerobes) standards of the Clinical and Laboratory Standards Institute (CLSI) guidelines. Overnight cell cultures of S. aureus, in the exponential phase of growth, were adjusted to an optical density (OD) of 0.132 ± 0.02 (λ = 600 nm). Then, a volume of 180 µL of the cell suspension was added to sterile, flat, clear-bottomed polystyrene (PS) 96-well microtiter plates (VWR—Radnor, PA, USA), already containing 20 µL of each QHS under study at concentrations ranging from 0.0625 to 64 µg/mL. In the end, the volume of each compound never exceeded 10% (v/v) of the well volume. Microtiter plates were then incubated for 24 h at 37 °C under agitation (150 rpm; INCU-Line IL 150R incubator). Absorbance measurements were performed at the beginning (t = 0 h) and end (t = 24 h) of the incubation period using a microtiter plate absorbance reader (BMG LABTECH FLUOstar Omega). Bacterial suspensions with DMSO and without QHSs were used as negative controls. […] All tests were performed with six replicates and a minimum of three independent repeats.
Plates were incubated at 37 °C for 24 h, and growth was visually inspected. […] All tests were performed in triplicate, and with a minimum of three independent repeats.

Setting [2] is: S. aureus CECT 976, broth microdilution.
Setting [3] is: S. aureus CECT 976, broth microdilution, plated on PCA, read-out: MBC.

Like-named read-outs stand apart in the source and are kept apart here.

For the compound `CCCCCCCCCCCCCCCCCC[n+]1ccc(C)cc1.[Br-]` [Compound 4g, 4-Methyl-1-octadecylpyridin-1-ium bromide], in series [1], the CHI is recorded as 109.2 and the chromatographic logP was 4.03. The MIC with S. aureus CECT 976 (setting [2]) is 8 µg/mL. Also, in the series with S. aureus CECT 976 (setting [3]), the MBC was 16 µg/mL.

Consider `CCCCCC[n+]1cccc2ccccc21.[Br-]` [Compound 5a, 1-Hexylquinolin-1-ium bromide], for which, in series [1], the CHI is 36.98 and the chromatographic logP was 0.638. Further, the MIC with S. aureus CECT 976 (setting [2]) is above 64 µg/mL. The MBC with S. aureus CECT 976 (setting [3]) is above 64 µg/mL.

In the case of `CCCCCCCC[n+]1cccc2ccccc21.[Br-]` [Compound 5b, 1-Octylquinolin-1-ium bromide], in series [1], the CHI was 49.24 and the chromatographic logP was 1.21. Further, in the series on S. aureus CECT 976 (setting [2]), the MIC is 16 µg/mL. Also, in the series with S. aureus CECT 976 (setting [3]), the MBC was above 64 µg/mL.

For the compound `CCCCCCCCCC[n+]1cccc2ccccc21.[Br-]` [Compound 5c, 1-Decylquinolin-1-ium bromide], in series [1], the CHI is on record as 61.45 and the chromatographic logP is 1.79. Also, the minimal inhibitory concentration (MIC) in the series on S. aureus CECT 976 (setting [2]) is 16 µg/mL. Moreover, the MBC in the series on S. aureus CECT 976 (setting [3]) was 32 µg/mL.

Turning to `CCCCCCCCCCCC[n+]1cccc2ccccc21.[Br-]` [Compound 5d, 1-Dodecylquinolin-1-ium bromide], in series [1], the CHI is listed as 74.21 and the chromatographic logP is 2.39. Moreover, in the series with S. aureus CECT 976 (setting [2]), the MIC turned out to be 4 µg/mL. Also, in the series with S. aureus CECT 976 (setting [3]), the MBC stood at 16 µg/mL.

For `CCCCCCCCCCCCCCCC[n+]1cccc2ccccc21.[Br-]` [Compound 5f, 1-Hexadecylquinolin-1-ium bromide], in series [1], the CHI is reported as 101.1 and the chromatographic logP is 3.65. Besides, the MIC in the series on S. aureus CECT 976 (setting [2]) stood at 4 µg/mL. The minimum bactericidal concentration (MBC) in the series with S. aureus CECT 976 (setting [3]) was 8 µg/mL.

On to `CCCCCCCCCCCCCCCCCC[n+]1cccc2ccccc21.[Br-]` [Compound 5g, 1-Octadecylquinolin-1-ium bromide], for which, in series [1], the CHI is 112.9 and the chromatographic logP is 4.21. Besides, the minimum inhibitory concentration (MIC) in the series with S. aureus CECT 976 (setting [2]) came out at 16 µg/mL. Besides, the MBC in the series with S. aureus CECT 976 (setting [3]) turned out to be 16 µg/mL.

With `CCCCCC[n+]1ccccc1.[Br-]` [Compound 6a, 1-Hexylpyridin-1-ium bromide], in series [1], the CHI was 27.07 and the chromatographic logP was 0.172. Also, the MIC with S. aureus CECT 976 (setting [2]) is above 64 µg/mL. In addition, the MBC in the series on S. aureus CECT 976 (setting [3]) was above 64 µg/mL.

For the compound `CCCCCCCC[n+]1ccccc1.[Br-]` [Compound 6b, 1-Octylpyridin-1-ium bromide], in series [1], the CHI was 40.78 and the chromatographic logP was 0.817. Moreover, the MIC in the series on S. aureus CECT 976 (setting [2]) is above 64 µg/mL. For the same compound, the MBC in the series on S. aureus CECT 976 (setting [3]) is above 64 µg/mL.

On to `CCCCCCCCCC[n+]1ccccc1.[Br-]` [Compound 6c, 1-Decylpyridin-1-ium bromide], for which, in series [1], the CHI is recorded as 53.07 and the chromatographic logP was 1.4. In addition, in the series on S. aureus CECT 976 (setting [2]), the MIC was found to be 32 µg/mL. In addition, in the series with S. aureus CECT 976 (setting [3]), the MBC was above 64 µg/mL.

With `CCCCCCCCCCCC[n+]1ccccc1.[Br-]` [Compound 6d, 1-Dodecylpyridin-1-ium bromide], in series [1], the CHI is recorded as 65.58. The MIC with S. aureus CECT 976 (setting [2]) stood at 2 µg/mL. For the same compound, the MBC with S. aureus CECT 976 (setting [3]) was determined as 8 µg/mL.

Consider `CCCCCCCCCCCCCCCC[n+]1ccccc1.[Br-]` [Compound 6f, 1-Hexadecylpyridin-1-ium bromide], for which, in series [1], the CHI is 94.47 and the chromatographic logP is 3.34. Moreover, the MBC with S. aureus CECT 976 came out at 8 µg/mL.

With `CCCCCCCCCCCCCCCCCC[n+]1ccccc1.[Br-]` [Compound 6g, 1-Octadecylpyridin-1-ium bromide], in series [1], the CHI is listed as 108.1 and the chromatographic logP is 3.98. For the same compound, in the series on S. aureus CECT 976 (setting [2]), the MIC came out at 8 µg/mL. Besides, the MBC in the series on S. aureus CECT 976 (setting [3]) came to 16 µg/mL.
